Data from patent US6858591B2, “Antibiotic AA 896 analogs” (Wyeth Holdings Corporation, priority 2001, dated 2005).
≈ marks a conversion by molar mass, not a printed value. Like-named read-outs stand apart in the source and are kept apart here.

How the values were obtained:
Test in all cases: In vitro MIC, broth dilution
Format in all cases: cell-based
[1] = tested on: E. coli GC 3226; details: E. coli GC 3226
[2] = tested on: E. coli GC 4559; details: E. coli GC 4559
[3] = tested on: E. faecalis GC 4555; details: E. faecalis GC 4555
Outline: (§1)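 Susceptibility testing used the NCCLS broth dilution method. Antibiotic spanned 64-0.06 μg/ml against an inoculum of 5×10^5 CFU/ml in Mueller-Hinton II; after 18 hours at 35° C the lowest concentration without growth gave the MIC.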

[4] = tested on: S. aureus GC 2216; details: S. aureus GC 2216
Outline: as §1

[5] = tested on: E. faecalis GC 842; details: E. faecalis GC 842
Outline: as §1

[6] = tested on: CNS GC 4537
Outline: as §1

[7] = tested on: E. faecalis GC 2242; details: E. faecalis GC 2242
Outline: as §1

[8] = tested on: CNS GC 4547
Outline: as §1

[9] = tested on: S. aureus GC 4536; details: S. aureus GC 4536
Outline: as §1

[10] = tested on: CNS GC 4538
Outline: as §1

[11] = tested on: S. aureus GC 1131; details: S. aureus GC 1131
Outline: as §1

[12] = tested on: P. aeruginosa GC 4532; details: P. aeruginosa GC 4532
[13] = tested on: M. morganii GC 4531; details: M. morganii GC 4531
[14] = tested on: E. coli GC 2203; details: E. coli GC 2203
[15] = tested on: S. marcescens GC 4077; details: S. marcescens GC 4077
[16] = tested on: E. cloacae GC 3783; details: E. cloacae GC 3783
[17] = tested on: C. albicans GC 3066; details: C. albicans GC 3066
[18] = tested on: P. aeruginosa GC 2214; details: P. aeruginosa GC 2214
[19] = tested on: K. pneumoniae GC 4534; details: K. pneumoniae GC 4534
[20] = tested on: E. coli GC 4560; details: E. coli GC 4560
[21] = Escherichia coli, GC3226, read-out: MIC
[22] = Escherichia coli, GC4559, read-out: MIC
[23] = Enterococcus faecalis, GC4555, read-out: MIC
[24] = Staphylococcus aureus, GC2216, read-out: MIC
[25] = Enterococcus faecalis, GC842, read-out: MIC
[26] = Enterococcus faecalis, GC2242, read-out: MIC
[27] = Staphylococcus aureus, GC4536, read-out: MIC
[28] = Staphylococcus aureus, GC1131, read-out: MIC
[29] = Pseudomonas aeruginosa, GC4532, read-out: MIC
[30] = Morganella morganii, GC4531, read-out: MIC
[31] = Escherichia coli, GC2203, read-out: MIC
[32] = Serratia marcescens, GC4077, read-out: MIC
[33] = Enterobacter cloacae, GC3783, read-out: MIC
[34] = Candida albicans, GC3066, read-out: MIC
[35] = Pseudomonas aeruginosa, GC2214, read-out: MIC
[36] = Klebsiella pneumoniae, GC4534, read-out: MIC
[37] = Escherichia coli, GC4560, read-out: MIC

Compound | MIC [1, 21] | MIC [2, 22] | MIC [3, 23] | MIC [4, 24] | MIC [5, 25] | MIC [7, 26] | MIC [9, 27] | MIC [11, 28] | MIC [12, 29] | MIC [13, 30] | MIC [14, 31] | MIC [15, 32] | MIC [16, 33] | MIC [17, 34] | MIC [18, 35] | MIC [19, 36] | MIC [20, 37] | other results
CCOC(=O)C(NCCCNC(=O)[C@H](CC(C)C)NC(=O)[C@H](CCCNC(=N)N[N+](=O)O)NC(=O)N[C@H](C(=O)OCc1ccccc1)C(C)C)C(OC(C)=O)[C@H]1O[C@H](n2ccc(=O)[nH]c2=O)[C@H](OC(C)=O)[C@@H]1OC(C)=O (stereo partly drawn) [Example 41, 19-Benzyl 5-ethyl (4R,12S,15S,19S)-4-[(2R,3R,4R,5S)-3,4-bis(acetyloxy)-5-(2,4-dioxo-3,4-dihydro-1(2H)-pyrimidinyl)tetrahydro-2-furanyl]-15-(3-{[(2,2-dioxido-2lambda˜1˜-diazanyl)(imino)methyl]amino}propyl)-12-isobutyl-20-methyl-2,11,14,17-tetraoxo-3-oxa-6,10,13,16,18-pentaazahenicosane-5,19-dicarboxylate] | > 128 µg/mL | > 128 µg/mL | > 128 µg/mL | > 128 µg/mL | > 128 µg/mL | 128 µg/mL | > 128 µg/mL | > 128 µg/mL | 128 µg/mL | > 128 µg/mL | > 128 µg/mL | > 128 µg/mL | > 128 µg/mL | 128 µg/mL | 128 µg/mL | > 128 µg/mL | > 128 µg/mL | MIC [6]: > 128 µg/mL; MIC [8]: > 128 µg/mL; MIC [10]: > 128 µg/mL
CCOC(=O)C(NCCCNC(=O)[C@H](CC(C)C)NC(=O)[C@H](CCCNC(=N)N[N+](=O)[O-])NC(=O)N[C@H](C(=O)OCc1ccccc1)C(C)C)[C@@H](OC(C)=O)[C@H]1O[C@@H](n2ccc(=O)[nH]c2=O)[C@H](OC(C)=O)[C@@H]1OC(C)=O (stereo partly drawn) [Example 42, 1-Benzyl 17-ethyl (2S,6S,9S)-16-{(R)-(acetyloxy)[(2R,3R,4R,5R)-3,4-bis(acetyloxy)-5-(2,4-dioxo-3,4-dihydro-1(2H)-pyrimidinyl)tetrahydro-2-furanyl]methyl}-6-(3-{[(2,2-dioxido-2lambda˜1˜-diazanyl)(imino)methyl]amino}propyl)-9-isobutyl-2-isopropyl-4,7,10-trioxo-3,5,8,11,15-pentaazaheptadecane-1,17-dioate] | – | – | – | – | – | – | – | – | – | – | – | – | – | – | – | – | – | MIC [1]: 128 µg/mL (≈ 119 µM); MIC [2]: >128 µg/mL; MIC [3]: 128 µg/mL (≈ 119 µM); MIC [4]: >128 µg/mL; MIC [5]: 128 µg/mL (≈ 119 µM); MIC ([6]; CNS GC 4537): >128 µg/mL; MIC [7]: 64 µg/mL (≈ 59.5 µM); MIC ([8]; CNS GC 4547): 128 µg/mL (≈ 119 µM); MIC [9]: >128 µg/mL; MIC ([10]; CNS GC 4538): >128 µg/mL; MIC [11]: >128 µg/mL; MIC [12]: 128 µg/mL (≈ 119 µM); MIC [13]: 128 µg/mL (≈ 119 µM); MIC [14]: >128 µg/mL; MIC [15]: 128 µg/mL (≈ 119 µM); MIC [16]: 128 µg/mL (≈ 119 µM); MIC [17]: 128 µg/mL (≈ 119 µM); MIC [18]: 128 µg/mL (≈ 119 µM); MIC [19]: 128 µg/mL (≈ 119 µM); MIC [20]: 128 µg/mL (≈ 119 µM)
COc1ccc(Cn2c(=O)ccn([C@@H]3OC([C@H](O)[C@H](NCCCNC(=O)[C@@H](N)CC(C)C)C(=O)O)[C@@H](O)[C@H]3O)c2=O)cc1 (stereo partly drawn) [Example 53, (2S,3R)-2-[(3-{[(2S)-2-Amino-4-methylpentanoyl]amino}propyl)amino]-3-[(3S,4R,5R)-3,4-dihydroxy-5-(3-(4-methoxybenzyl)-2,4-dioxo-3,4-dihydro-1(2H)-pyrimidinyl)tetrahydro-2-furanyl]-3-hydroxypropanoic acid] | > 128 µg/mL | > 128 µg/mL | 128 µg/mL (≈ 211 µM) | > 128 µg/mL | 128 µg/mL (≈ 211 µM) | 128 µg/mL (≈ 211 µM) | > 128 µg/mL | > 128 µg/mL | 128 µg/mL (≈ 211 µM) | > 128 µg/mL | > 128 µg/mL | > 128 µg/mL | > 128 µg/mL | 128 µg/mL (≈ 211 µM) | 128 µg/mL (≈ 211 µM) | > 128 µg/mL | 128 µg/mL (≈ 211 µM) | MIC ([6]; CNS GC 4537, read-out: MIC): > 128 µg/mL; MIC ([8]; CNS GC 4547, read-out: MIC): > 128 µg/mL; MIC ([10]; CNS GC 4538, read-out: MIC): > 128 µg/mL
